We go through 7 molecules from patent US10273278B2, “Epitope recognized by anti-interferon gamma autoantibodies in patients with disseminated mycobacterial infections and the application therefor” (priority 2015, dated 2019).

Assay [1] concerns THP1 cells. Kind of assay: p-STAT1 in THP1 cells pre-incubated with sera of immunized rats and treated with IFNr. The note with it: 50% sera. In kind it is cell-based.
Assay [2] concerns WKY/NcrlNarl rats. Description: Immunization of rats with Noc2 or IFNr peptide conjugated with OVA. Format: in vivo, rat. The settings on record: 0.25 mg peptide-OVA, booster every two weeks. The protocol: The inventor immunized WKY/NcrlNarl rats with 0.25 mg Noc2 or IFNr[…] peptide (Noc2: […] (SEQ NO: 31); IFNr: […] (SEQ NO: 32)) conjugated with ovalbumin (OVA) and gave a booster dose every two weeks after the initial injection (day 0). After 70 days, the inventor checked the antibody production level by dot blot or ELISA at each injection. All rats were sacrificed ten days after the tenth injection (day 136) and whole blood was collected. After collection of the whole blood, the blood was allowed to clot by leaving it undisturbed at room temperature 15 minutes. Clots were removed by centrifuging at 1500 g for 10 minutes in a refrigerated centrifuge. Sera were aliquoted and stored at −20° C. for further use.
Blood sera from pre-immunized rats (n=6), Noc2 peptide-immunized rats (n=4) and Peptide 6-immunized rats (n=2) were mapped to control peptide, Peptide 6 and Noc2 peptide from Aspergillus terreus or Aspergillus fumigatus. This is represented as the mean optical density (OD) at 405 nm.

For assay [3], the system named is anti-IFNr AutoAbs. Description: Immunoblotting (Western blot / dot blot) with patient or control plasma. Format: binding, human. The settings on record: for recognition by anti-IFNr AutoAbs in Western blot and dot blot: plasma from anti-IFNr AutoAbs patients; for binding of plasma from healthy controls in Western blot: plasma from healthy donors. As for the experimental part:
Recombinant IFNr[…] (R&D Systems) and different truncated forms of recombinant IFNr[…] were subjected to SDS-PAGE using a 10% gel under reducing conditions at 120 V for 2 hours. The proteins were transferred to a PVDF membrane (Invitrogen Life Technologies) at 250 mA for 2 hours. The membrane was blocked in 5% human normal serum albumin (Aventis) in TBS with 0.1% Tween 20 overnight at 4° C. The membrane was incubated with a 1/100 dilution of patient or control blood plasma for 3 hours at room temperature. After being washed three times, the membrane was incubated in a 1/10,000 dilution of mouse anti-human IgG conjugated with horseradish peroxidase (Jackson ImmunoResearch Laboratories) for 1 hour at room temperature. After being washed three times, the membrane was developed with ECL (Merck Millipore).
Plasma from 3 healthy donors had no response to either IFNr1-131 or EE-IFNr.
In general terms: In western blotting, separated proteins are transferred to a membrane and probed.

Assay [4] concerns anti-IFNr AutoAbs. Kind of assay: Protein mapping ELISA of recombinant IFNr proteins with blood plasma. Format: binding, human. The settings on record: for recognition of recombinant IFNr protein by blood plasma (ELISA): plasma from group-1 patients. (In general: In an ELISA, binding on a coated surface is turned into a signal by an enzyme label.)
The test system of assay [5] is anti-IFNr AutoAbs. Kind of assay: Epitope mapping ELISA of synthetic peptides with blood plasma. In kind it is binding, human. The settings on record: for recognition of synthetic peptide by blood plasma: plasma from anti-IFNr AutoAbs patients (group-1), 1:100, OD 405 nm. As for the experimental part:
Clear polystyrene 96-well flat bottom plates (Nunc) were coated with 100 μL of peptide solution (5 μg/mL) with b-carbonate buffer (pH 9.6) at 4° C. overnight. After blocking the remaining binding sites with 5% human normal serum albumin (Aventis) in PBS, the plates were incubated at 37° C. for 1 hour. Afterward, the plates were washed 3 times with 0.5% Tween 20 in PBS.
Blood plasma samples were added at a 1:100 dilution, in PBS containing 5% human normal serum albumin. Following incubation at room temperature for 2 hours and being washed 3 times, goat anti-human IgG Fcr fragment specific conjugated with alkaline phosphate (Jackson ImmunoResearch Laboratories), was added at a 1:5000 dilution, and the plates were kept for 1 hour at room temperature. Finally, after being washed 5 times, 100 μL of p-Nitrophenyl Phosphate (pNPP) was added and the reaction was read at 405 nm by a VICTOR X3 Multilabel Plate Reader (PerkinElmer) after 30 minutes of incubation at 37° C.

For assay [6], the system named is anti-IFNr AutoAbs. Kind of assay: Competition ELISA against coated peptide 6. In kind it is binding, human. The note with it: patient plasma pre-incubated with 5-30 μg/mL competitor peptide. The protocol:
To evaluate the specificity of the reaction, a competition ELISA experiment was performed. Each plasma sample (1:100 dilutions) was pre-incubated with different concentrations (5-30 μg/mL) of the competition peptides overnight at 4° C. Subsequently, all plasma and different concentrations competition peptides mixture samples were examined following the epitope mapping protocol. Peptide 6 was coated with b-carbonate buffer (pH 9.6) at 4° C. overnight. After blocking at 37° C. for 1 hour, all pre-incubated plasma and different concentrations competition peptides mixture samples were added in duplicate. Following 2 hours of room temperature incubation, goat anti-human IgG Fcr fragment specific conjugated with alkaline phosphate, was added. Finally, 100 μL of pNPP was added and the reaction was read at 405 nm by a VICTOR X3 Multilabel Plate Reader (PerkinElmer) after 30 minutes of incubation at 37° C.

For assay [7], the system named is p-STAT1 in PBMCs. Description: p-STAT1 intracellular stain in PBMCs (CD14+ gated). Format: cell-based, human. The note with it: for p-STAT1 signaling restored / up-regulated: IFNr AutoAbs patients' PBMCs pre-incubated with 10% autologous blood plasma; for phosphorylation of STAT1: controls' PBMCs pre-incubated with 20% blood plasma with anti-IFNr AutoAbs from patients; for p-STAT1 signaling: controls' PBMCs, 20% control blood plasma. As for the experimental part: A total of 10^6 PBMCs in 200 μL RPMI-1640 with 10% FBS and 1% penicillin/streptomycin was used. […] After 30 minutes of stimulation in a 37° C. incubator, monocytes were identified by FITC-CD14 (BD Pharmingen) surface staining. Fixed by adding 250 μL of FASC lysing solution (BD Pharmingen) and incubated at room temperature for 15 minutes in the dark, followed by two washes with PBS. To permeabilize the cells, 500 μl of ice-cold absolute methanol was added to each tube and incubated for 15 minutes on ice in the dark, followed by two washes with PBS. Next, PE-phospho-STAT1 (pY701) antibody (BD Pharmingen) was added, followed by 30 minutes incubation on ice in the dark. Again, cells were washed with 2 mL of PBS before resuspension in the 500 μL of PBS. Data were collected with a FACSVerse flow cytometer (BD Biosciences) and analyzed using FACSuite software (BD Biosciences).
Representative histograms (FIG. 2c(1)-FIG. 2c(2)) and MFI (median fluorescence intensity) (FIG. 2d) are shown.
After being gated on the CD14^+, p-STAT-1 levels were determined by flow cytometry with the p-STAT-1 monoclonal antibody. Representative histograms (FIG. 4a(1)-FIG. 4a(2)) and MFI (median fluorescence intensity) (FIG. 4b) are shown.

In assay [8] the test system is IL-12p40 in PBMCs. Format: cell-based, human.
Assay [9] deals with p-STAT1 in whole blood. Description: p-STAT1 in whole blood ex vivo. In kind it is cell-based, human. The settings on record: for p-STAT1 signaling restored / up-regulated: IFNr AutoAbs patients' whole blood; for p-STAT1 signal: controls' whole blood. From the text: Representative histograms (FIG. 4f(1)-FIG. 4f(2)) and MFI (median fluorescence intensity) (FIG. 4g) are shown.

The test system of assay [10] is HLA-DR expression in PBMCs. Kind of assay: HLA-DR expression in PBMCs (CD14+ gated). Format: cell-based, human. The settings on record: IFNr AutoAbs patients' PBMCs pre-incubated with 10% autologous plasma. The protocol: A total of 10^6 PBMCs in 200 μL RPMI-1640 with 10% FBS and 1% penicillin/streptomycin was used. Cells were then stimulated with 500 IU IFNr, IFNr_1-131 or EE-IFNr⋅ in 160 μL RPMI-1640 pre-incubated with 40 μL of normal blood plasma or patient blood plasma for 10 min at room temperature. After 24 hours of stimulation in a 37° C. incubator, monocytes were identified by FITC-CD14 (BD Pharmingen) surface staining. Next, PE-HLA-DR antibody (BD Pharmingen) was added followed by 30 minutes of incubation on ice in the dark. Cells were again washed with 2 ml of PBS before resuspension in 500 μl of PBS. Data were collected with a FACSVerse flow cytometer (BD Biosciences) and analyzed using FACSuite software (BD Biosciences).
After being gated on the CD14^+, HLA-DR expression levels were determined by flow cytometry with the HLA-DR monoclonal antibody. Representative histograms (FIG. 4d(1)-FIG. 4d(2)) and MFI (median fluorescence intensity) (FIG. 4e) are shown.

For assay [11], the system named is anti-IFNr AutoAbs. Description: Detection and titration of IFNr neutralizing autoantibodies (patient plasma, IFNr ELISA). In kind it is binding, human. The note with it: 200 pg/mL IFNr incubated with serially diluted patient plasma. The protocol: Blood plasma from patients and donors was serially diluted (10^−1 to 10^−6) and incubated with recombinant human IFNr at a final concentration of 200 pg/mL for 1 hour at 37° C. The IFNr level was measured with a human IFNr ELISA kit from BD Biosciences according to the manufacturer's recommendations. All experiments were performed in duplicate.

As to CTPKTGKRKRSEQ, the “p-STAT1 signaling after recombinant IFNr in presence of sera of immunized rats” value in assay [1] is “decreased up-regulation of p-STAT1 signaling”. The “antibodies developed after immunization” value in assay [2] is reported as “developed anti-Noc2 antibodies that cross-reacted with human IFNr”.

In the case of “IFNr_1-144: full-length recombinant IFNr expressed in Schneider 2 cells [reference compound]”, in assay [3], the “recognition by anti-IFNr AutoAbs in Western blot and dot blot” value was “recognized by anti-IFNr AutoAbs”. Also, the “recognition of recombinant IFNr protein by blood plasma (ELISA)” value in assay [4] is given as “recognized by blood plasma isolated from the group-1 patients”.

As for “KKDVTPKTGKRKRSEQQKDE (KKDVPPKTGKRKRSEQQKDE; listed as Aspergillus terreus) [Aspergillus Noc2 peptide]”, the “recognition of synthetic peptide by blood plasma” value in assay [5] is given as “recognized by blood plasma isolated from patients with anti-IFNr AutoAbs”. In addition, the “binding of synthetic peptide by blood plasma” value in assay [5] (plasma from mycobacteria infected patients without AutoAbs / healthy controls) is recorded as “did not react”. The “competition for AutoAbs binding to coated peptide 6” value in [6] is “compete for IFNr AutoAbs binding with peptide 6 in a dose dependent manner”.

Turning to “peptide 6: 30-mer synthetic peptide of human IFNr, P114-143 (IQVMAELSPAAKTGKRKRSQMLFRGRRASQ; UniProt P01579 137-166, looked up, fragment)”, the “recognition of synthetic peptide by blood plasma” value in assay [5] is on record as “recognized in the blood plasma isolated from the 12 patients in group-1”. The “recognition of synthetic peptide by non-neutralizing AutoAbs” value in assay [5] (plasma from healthy donors with non-neutralizing IFNr AutoAbs) is listed as “did not recognize”. Also, the “competition for AutoAbs binding to coated peptide 6” value in assay [6] is “competition for the binding with coated peptide 6 in a dose dependent manner”.

On to “recombinant IFNr: Recombinant human IFNr (R&D Systems), commercial wild type [reference compound]”, for which, in [7], the “p-STAT1 signaling restored / up-regulated” value was “up-regulated p-STAT1 signaling cannot be observed”, the “phosphorylation of STAT1” value was “not” and the p-STAT1 signaling result is on record as “Up-regulation of the p-STAT1 signaling was observed”. For the same molecule, in [8], the IL-12p40 expression entry was “elevation of IL-12p40 expression couldn't be observed”. In assay [9], the “p-STAT1 signaling restored / up-regulated” value is recorded as “up-regulated p-STAT1 signaling was not found” and the p-STAT1 signal result is reported as “up-regulated”. Besides, the “HLA-DR expression levels restored / up-regulated” value in assay [10] is “up-regulated HLA-DR expression levels were not observed”.

B1: mIFNr: murine IFNr (protein, UniProt P01580 23-155, looked up)
Interferon gamma: HGTVIESLESLNNYFNSSGIDVEEKSLFLDIWRNWQKDGDMKILQSQIISFYLRLFEVLKDNQAISNNISVIESHLITTFFSNSKAKKDAFMSIAKFEVNNPQVQRQAFNELIRVVHQLLPESSLRKRKRSRC
Turning to B1, the “blocking of IFNr detection by plasma from patients with AutoAbs (plasma dilution)” value is listed as “no blocking activity” in assay [11] and “did not show blocking activity” in assay [11] (listed as murine IFNr).

B2: IFNr_1-131: truncated recombinant human IFNr, deletion clone a.a. 1-131, expressed in Schneider 2 cells (protein)
chain: QDPYVKEAENLKKYFNAGHSDVADNGTLFLGILKNWKEESDRKIMQSQIVSFYFKLFKNFKDDQSIQKSVETIKEDMNVKFFNSNKKKRDDFEKLTNYSVTDLNVQRKAIHELIQVMAELSPAAKTGKRKR
modifications: left off: small tags and cut ends
notes: truncated recombinant human IFNr, deletion clone a.a; 1-131, expressed in Schneider 2 cells
As for B2, in assay [7], the “p-STAT1 signaling restored / up-regulated” value is listed as “up-regulated p-STAT1 signaling cannot be observed”, the “phosphorylation of STAT1” value is given as “not” and the p-STAT1 signaling result is reported as “Up-regulation of the p-STAT1 signaling was observed”. Besides, the IL-12p40 expression result in assay [8] is recorded as “elevation of IL-12p40 expression couldn't be observed”. In addition, in assay [3], the “recognition by anti-IFNr AutoAbs in Western blot and dot blot” value is recorded as “recognized by anti-IFNr AutoAbs”; the “binding of plasma from healthy controls in Western blot” value is recorded as “no response”. Besides, the “binding of plasma from healthy controls in Western blot” value in assay [3] (listed as WT IFNr_1-131) is “could not bind”. In assay [9], the “p-STAT1 signaling restored / up-regulated” value is recorded as “up-regulated p-STAT1 signaling was not found” and the p-STAT1 signal entry was “up-regulated”. Also, the “HLA-DR expression levels restored / up-regulated” value in [10] was “up-regulated HLA-DR expression levels were not observed”. Also, the “affinity of anti-IFNr AutoAbs by ELISA” value in assay [4] (patients' blood plasma, OD 405 nm) is listed as “bound to IFNr_1-131 in a dose dependent manner”. In [4], the “recognition of recombinant IFNr protein by blood plasma (ELISA)” value is recorded as “recognized by blood plasma isolated from the group-1 patients”.
